According to ChEMBL document CHEMBL3132773, “Synthesis and biological evaluation of novel 2,3-dihydro-1H-1,5-benzodiazepin-2-ones; potential imaging agents of the metabotropic glutamate 2 receptor” (Medchemcomm, 2013):

Key:
[1] = Lipophilicity, log P of the compound by HPLC analysis; assay type: physicochemical
Albumin = Albumin (Homo sapiens, UniProt P02768); assay: Protein binding in human serum albumin by chromatography; assay type: ADME; conditions: read-out: PPB (converted)
[2] = target: Metabotropic glutamate receptor 2 (Homo sapiens, UniProt Q14416); assay: Non-competitive antagonist activity at human recombinant mGluR2 expressed in Chem-1 cell membrane assessed as inhibition of L-glutamate-induced [35S]GTPgammaS binding after 30 mins by liquid scintillation counting analysis; assay type: functional, cell membranes
Sequence of Metabotropic glutamate receptor 2 (Q14416 whole entry): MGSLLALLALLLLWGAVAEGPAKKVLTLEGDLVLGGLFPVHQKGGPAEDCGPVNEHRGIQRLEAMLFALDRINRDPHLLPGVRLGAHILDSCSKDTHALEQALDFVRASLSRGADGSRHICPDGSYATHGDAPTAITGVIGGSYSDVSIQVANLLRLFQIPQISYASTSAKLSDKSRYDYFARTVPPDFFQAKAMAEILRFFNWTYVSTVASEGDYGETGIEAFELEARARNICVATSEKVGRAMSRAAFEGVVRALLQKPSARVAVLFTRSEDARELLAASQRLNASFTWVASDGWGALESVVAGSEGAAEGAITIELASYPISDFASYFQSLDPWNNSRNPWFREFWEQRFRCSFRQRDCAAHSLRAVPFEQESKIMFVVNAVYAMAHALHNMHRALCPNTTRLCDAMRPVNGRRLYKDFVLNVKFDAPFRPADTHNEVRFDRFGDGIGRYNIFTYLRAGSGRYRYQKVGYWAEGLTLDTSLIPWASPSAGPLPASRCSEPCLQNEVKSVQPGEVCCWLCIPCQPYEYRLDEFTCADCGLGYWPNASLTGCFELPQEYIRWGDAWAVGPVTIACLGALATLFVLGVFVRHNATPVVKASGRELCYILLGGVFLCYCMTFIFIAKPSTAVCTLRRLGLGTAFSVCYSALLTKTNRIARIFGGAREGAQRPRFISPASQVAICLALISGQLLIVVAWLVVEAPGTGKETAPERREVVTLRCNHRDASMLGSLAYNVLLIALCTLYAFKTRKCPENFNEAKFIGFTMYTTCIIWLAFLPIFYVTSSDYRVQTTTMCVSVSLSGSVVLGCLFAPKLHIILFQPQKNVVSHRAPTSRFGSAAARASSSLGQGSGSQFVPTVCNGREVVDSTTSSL

Sequence of Albumin (P02768 whole entry): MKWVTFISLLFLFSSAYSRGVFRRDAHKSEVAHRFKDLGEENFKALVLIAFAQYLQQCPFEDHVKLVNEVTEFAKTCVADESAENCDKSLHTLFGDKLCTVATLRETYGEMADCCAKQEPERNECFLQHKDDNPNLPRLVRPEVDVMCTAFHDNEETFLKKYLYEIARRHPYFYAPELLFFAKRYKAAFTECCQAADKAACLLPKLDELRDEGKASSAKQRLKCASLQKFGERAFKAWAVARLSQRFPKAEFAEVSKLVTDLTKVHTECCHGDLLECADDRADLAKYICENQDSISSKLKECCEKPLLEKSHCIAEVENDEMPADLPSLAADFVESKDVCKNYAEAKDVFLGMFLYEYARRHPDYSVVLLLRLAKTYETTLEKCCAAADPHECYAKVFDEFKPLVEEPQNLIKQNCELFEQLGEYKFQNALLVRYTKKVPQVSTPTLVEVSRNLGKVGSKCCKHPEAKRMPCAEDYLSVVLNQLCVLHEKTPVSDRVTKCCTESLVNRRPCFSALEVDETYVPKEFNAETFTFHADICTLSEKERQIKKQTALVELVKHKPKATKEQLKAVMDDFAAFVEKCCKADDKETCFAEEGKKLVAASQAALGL

logP [1]	fraction unbound (Albumin)	IC50 [2] [nM]	SMILES
4.6	0.0508	89	O=C1CC(c2cccc(-n3ccnc3)c2)=Nc2ccc(I)cc2N1
5.72	0.0168	89	COc1cc2c(cc1-c1ccc(I)cc1)NC(=O)CC(c1cccc(-n3ccnc3)c1)=N2
–	–	533	Clc1cccc(Cl)c1/C(=C/n1cncn1)OC1CCCCCC1
5.06	0.0488	100	O=C1CC(c2cccc(-n3ccnc3)c2)=Nc2cc(OCCCF)c(C(F)(F)F)cc2N1
5.73	0.0154	132	O=C1CC(c2cccc(-n3ccnc3)c2)=Nc2ccc(-c3cccc(I)c3)cc2N1
5.77	0.0133	133	O=C1CC(c2cccc(-n3ccnc3)c2)=Nc2ccc(-c3ccc(I)cc3)cc2N1
4.67	0.0759	91	COc1cc2c(cc1C(F)(F)F)NC(=O)CC(c1cccc(-n3ccnc3)c1)=N2
